Legend:
[1] = biological target: Casein kinase I isoform gamma-1 (Homo sapiens) (UniProt Q9HCP0); test: CK1_gamma1 Kinase panel; settings: Compound concentration 1.0 uM
[2] = biological target: Epithelial discoidin domain-containing receptor 1 (Homo sapiens) (UniProt Q08345); test: DDR1 Kinase panel; settings: Compound concentration 1.0 uM
[3] = biological target: Platelet-derived growth factor receptor alpha (Homo sapiens) (UniProt P16234); test: PDGFR_alpha Kinase panel; settings: Compound concentration 1.0 uM
[4] = biological target: Protein-tyrosine kinase 6 (Homo sapiens) (UniProt Q13882); test: Brk Kinase panel; settings: Compound concentration 1.0 uM
[5] = biological target: Tyrosine-protein kinase Fes/Fps (Homo sapiens) (UniProt P07332); test: Fes Kinase panel; settings: Compound concentration 1.0 uM
[6] = biological target: Sigma non-opioid intracellular receptor 1 (Homo sapiens) (UniProt Q99720); settings: Compound concentration 10.0 uM
[7] = biological target: Tyrosine-protein kinase JAK2 (Homo sapiens, UniProt O60674); test: JAK2 Kinase panel
Tyrosine-protein kinase JAK2, sequence (O60674 whole entry, canonical isoform): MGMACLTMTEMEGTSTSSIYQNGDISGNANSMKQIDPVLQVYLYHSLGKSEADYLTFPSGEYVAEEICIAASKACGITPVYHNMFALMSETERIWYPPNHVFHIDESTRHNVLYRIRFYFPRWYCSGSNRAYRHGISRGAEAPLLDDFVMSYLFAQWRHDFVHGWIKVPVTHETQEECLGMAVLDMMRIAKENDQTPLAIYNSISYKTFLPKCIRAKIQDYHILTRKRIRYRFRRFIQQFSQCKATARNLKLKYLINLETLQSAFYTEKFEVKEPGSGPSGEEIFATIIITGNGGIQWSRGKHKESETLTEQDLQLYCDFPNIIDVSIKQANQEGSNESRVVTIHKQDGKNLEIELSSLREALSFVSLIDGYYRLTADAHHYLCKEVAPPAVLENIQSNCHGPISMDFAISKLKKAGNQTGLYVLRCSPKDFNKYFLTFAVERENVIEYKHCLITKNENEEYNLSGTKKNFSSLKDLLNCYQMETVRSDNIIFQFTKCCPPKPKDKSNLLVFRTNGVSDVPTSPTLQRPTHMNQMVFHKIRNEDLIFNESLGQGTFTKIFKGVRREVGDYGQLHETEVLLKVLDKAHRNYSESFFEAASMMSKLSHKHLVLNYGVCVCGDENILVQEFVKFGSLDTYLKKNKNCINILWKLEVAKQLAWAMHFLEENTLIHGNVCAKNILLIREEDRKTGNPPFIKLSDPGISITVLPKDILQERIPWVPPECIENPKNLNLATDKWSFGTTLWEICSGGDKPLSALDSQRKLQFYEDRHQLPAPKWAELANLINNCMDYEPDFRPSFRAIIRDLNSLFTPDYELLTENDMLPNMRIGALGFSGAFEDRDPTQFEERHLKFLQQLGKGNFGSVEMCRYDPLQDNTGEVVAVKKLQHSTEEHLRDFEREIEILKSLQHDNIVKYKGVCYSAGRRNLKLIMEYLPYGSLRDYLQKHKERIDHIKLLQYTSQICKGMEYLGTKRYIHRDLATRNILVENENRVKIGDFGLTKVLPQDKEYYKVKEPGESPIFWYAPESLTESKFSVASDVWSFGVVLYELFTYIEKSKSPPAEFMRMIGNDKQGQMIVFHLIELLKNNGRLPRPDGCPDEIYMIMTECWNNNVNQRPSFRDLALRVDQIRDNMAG

[8] = biological target: Casein kinase I isoform alpha (Homo sapiens) (UniProt P48729); test: CK1_alpha1 Kinase panel; settings: Compound concentration 1.0 uM
[9] = biological target: Beta-1 adrenergic receptor (Homo sapiens) (UniProt P08588); settings: Compound concentration 10.0 uM
[10] = biological target: Serine/threonine-protein kinase PAK 6 (Homo sapiens) (UniProt Q9NQU5); test: PAK6 Kinase panel; settings: Compound concentration 1.0 uM
[11] = biological target: Serine/threonine-protein kinase BRSK1 (Homo sapiens) (UniProt Q8TDC3); test: BrSK1 Kinase panel; settings: Compound concentration 1.0 uM
[12] = biological target: G protein-coupled receptor kinase 6 (Homo sapiens) (UniProt P43250); test: GRK6 Kinase panel; settings: Compound concentration 1.0 uM
[13] = biological target: Homeodomain-interacting protein kinase 4 (Homo sapiens) (UniProt Q8NE63); test: HIPK4 Kinase panel; settings: Compound concentration 1.0 uM
[14] = biological target: Myotonin-protein kinase (Homo sapiens) (UniProt Q09013); test: DMPK Kinase panel; settings: Compound concentration 1.0 uM
[15] = biological target: Delta-type opioid receptor (Homo sapiens) (UniProt P41143); settings: Compound concentration 10.0 uM
[16] = biological target: Tyrosine-protein kinase Lck (Homo sapiens) (UniProt P06239); test: Lck Kinase panel; settings: Compound concentration 1.0 uM
[17] = biological target: Myosin light chain kinase, smooth muscle (Homo sapiens) (UniProt Q15746); test: MYLK(smMLCK) Kinase panel; settings: Compound concentration 1.0 uM
[18] = biological target: Calcium/calmodulin-dependent protein kinase type 1D (Homo sapiens) (UniProt Q8IU85); test: CaMKI_delta Kinase panel; settings: Compound concentration 1.0 uM
[19] = biological target: Phosphatidylinositol 4,5-bisphosphate 3-kinase catalytic subunit gamma isoform (Homo sapiens) (UniProt P48736); test: PI3KG Kinase panel; settings: Compound concentration 1.0 uM
[20] = biological target: Proto-oncogene tyrosine-protein kinase ROS (Homo sapiens) (UniProt P08922); test: Ros Kinase panel; settings: Compound concentration 1.0 uM
[21] = biological target: Serine/threonine-protein kinase PAK 3 (Homo sapiens) (UniProt O75914); test: PAK3 Kinase panel; settings: Compound concentration 1.0 uM
[22] = biological target: Hepatocyte growth factor receptor (Homo sapiens) (UniProt P08581); test: Met Kinase panel; settings: Compound concentration 1.0 uM
[23] = biological target: Interleukin-1 receptor-associated kinase 1 (Homo sapiens) (UniProt P51617); test: IRAK1 Kinase panel; settings: Compound concentration 1.0 uM
[24] = biological target: Protein kinase C theta type (Homo sapiens) (UniProt Q04759); test: PKC_theta Kinase panel; settings: Compound concentration 1.0 uM
[25] = biological target: Alpha-2C adrenergic receptor (Homo sapiens) (UniProt P18825); settings: Compound concentration 10.0 uM
[26] = biological target: Serine/threonine-protein kinase Nek9 (Homo sapiens) (UniProt Q8TD19); test: NEK9 Kinase panel; settings: Compound concentration 1.0 uM
[27] = biological target: Glycogen synthase kinase-3 beta (Homo sapiens) (UniProt P49841); test: GSK3_beta Kinase panel; settings: Compound concentration 1.0 uM
[28] = biological target: Cyclin-dependent kinase 7/ cyclin H (Homo sapiens) (UniProt P51946+P50613); test: CDK7/cyclinH Kinase panel; assay type: protein-complex assay; settings: Compound concentration 1.0 uM
[29] = biological target: Tyrosine-protein kinase ITK/TSK (Homo sapiens) (UniProt Q08881); test: ITK Kinase panel; settings: Compound concentration 1.0 uM
Tyrosine-protein kinase ITK/TSK (Homo sapiens), sequence (Q08881 whole entry): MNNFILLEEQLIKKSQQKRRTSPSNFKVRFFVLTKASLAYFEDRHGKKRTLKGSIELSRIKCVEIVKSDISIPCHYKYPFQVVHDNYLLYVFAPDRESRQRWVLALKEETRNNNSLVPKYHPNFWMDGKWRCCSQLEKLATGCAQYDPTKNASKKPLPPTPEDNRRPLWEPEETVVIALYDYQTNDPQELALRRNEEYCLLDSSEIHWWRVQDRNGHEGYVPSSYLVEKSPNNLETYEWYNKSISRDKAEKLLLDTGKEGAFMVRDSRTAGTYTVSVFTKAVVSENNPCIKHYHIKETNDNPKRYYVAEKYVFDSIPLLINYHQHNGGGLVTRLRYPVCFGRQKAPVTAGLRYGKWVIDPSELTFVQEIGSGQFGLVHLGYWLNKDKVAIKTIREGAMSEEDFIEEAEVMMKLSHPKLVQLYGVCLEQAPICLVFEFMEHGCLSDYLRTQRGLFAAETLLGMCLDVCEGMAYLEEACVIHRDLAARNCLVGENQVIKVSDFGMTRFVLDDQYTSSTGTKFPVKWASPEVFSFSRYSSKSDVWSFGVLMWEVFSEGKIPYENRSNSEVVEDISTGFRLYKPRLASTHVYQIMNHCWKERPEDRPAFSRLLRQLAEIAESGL

[30] = biological target: Serine/threonine-protein kinase WNK2 (Homo sapiens) (UniProt Q9Y3S1); test: WNK2 Kinase panel; settings: Compound concentration 1.0 uM
[31] = biological target: Homeodomain-interacting protein kinase 1 (Homo sapiens) (UniProt Q86Z02); test: HIPK1 Kinase panel; settings: Compound concentration 1.0 uM
[32] = biological target: Mitogen-activated protein kinase kinase kinase 2 (Homo sapiens) (UniProt Q9Y2U5); test: MEKK2 Kinase panel; settings: Compound concentration 1.0 uM
[33] = biological target: Protein kinase C beta type (Homo sapiens) (UniProt P05771); test: PKC_beta1 Kinase panel; settings: Compound concentration 1.0 uM
[34] = biological target: Mitogen-activated protein kinase 11 (Homo sapiens) (UniProt Q15759); test: p38_beta Kinase panel; settings: Compound concentration 1.0 uM
[35] = test system: Epidermal growth factor receptor (Homo sapiens), P00533 [L858R,T790M]; test: EGFR(T790M,L8 58R) Kinase panel; settings: Compound concentration 1.0 uM
[36] = biological target: Ephrin type-B receptor 1 (Homo sapiens) (UniProt P54762); test: EphB1 Kinase panel; settings: Compound concentration 1.0 uM
[37] = biological target: Muscarinic acetylcholine receptor M2 (Homo sapiens) (UniProt P08172); settings: Compound concentration 10.0 uM
[38] = biological target: Glycogen synthase kinase-3 alpha (Homo sapiens) (UniProt P49840); test: GSK3_alpha Kinase panel; settings: Compound concentration 1.0 uM
Glycogen synthase kinase-3 alpha (Homo sapiens), sequence (P49840 2-483 limits assumed): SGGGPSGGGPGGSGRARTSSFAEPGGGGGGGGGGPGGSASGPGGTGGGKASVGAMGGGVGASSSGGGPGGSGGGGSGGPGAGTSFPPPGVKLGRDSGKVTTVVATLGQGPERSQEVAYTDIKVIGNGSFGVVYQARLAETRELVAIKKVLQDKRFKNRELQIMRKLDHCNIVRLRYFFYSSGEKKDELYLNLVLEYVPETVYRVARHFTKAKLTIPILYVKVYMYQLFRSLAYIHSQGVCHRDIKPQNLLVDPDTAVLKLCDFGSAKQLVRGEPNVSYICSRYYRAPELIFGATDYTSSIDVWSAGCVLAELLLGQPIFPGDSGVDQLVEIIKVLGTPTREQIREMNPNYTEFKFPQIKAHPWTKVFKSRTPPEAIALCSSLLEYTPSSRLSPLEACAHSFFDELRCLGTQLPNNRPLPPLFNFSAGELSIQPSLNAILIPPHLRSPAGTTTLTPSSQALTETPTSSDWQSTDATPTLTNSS

[39] = biological target: Calcium/calmodulin-dependent protein kinase type II subunit beta (Homo sapiens) (UniProt Q13554); test: CaMKII_beta Kinase panel; settings: Compound concentration 1.0 uM
[40] = biological target: Histamine H1 receptor (Homo sapiens) (UniProt P35367); settings: Compound concentration 10.0 uM
[41] = biological target: Tyrosine-protein kinase Yes (Homo sapiens) (UniProt P07947); test: Yes Kinase panel; settings: Compound concentration 1.0 uM
[42] = biological target: Tyrosine-protein kinase JAK1 (Homo sapiens, UniProt P23458); test: JAK1 Kinase panel
Tyrosine-protein kinase JAK1, sequence (P23458 whole entry, canonical isoform): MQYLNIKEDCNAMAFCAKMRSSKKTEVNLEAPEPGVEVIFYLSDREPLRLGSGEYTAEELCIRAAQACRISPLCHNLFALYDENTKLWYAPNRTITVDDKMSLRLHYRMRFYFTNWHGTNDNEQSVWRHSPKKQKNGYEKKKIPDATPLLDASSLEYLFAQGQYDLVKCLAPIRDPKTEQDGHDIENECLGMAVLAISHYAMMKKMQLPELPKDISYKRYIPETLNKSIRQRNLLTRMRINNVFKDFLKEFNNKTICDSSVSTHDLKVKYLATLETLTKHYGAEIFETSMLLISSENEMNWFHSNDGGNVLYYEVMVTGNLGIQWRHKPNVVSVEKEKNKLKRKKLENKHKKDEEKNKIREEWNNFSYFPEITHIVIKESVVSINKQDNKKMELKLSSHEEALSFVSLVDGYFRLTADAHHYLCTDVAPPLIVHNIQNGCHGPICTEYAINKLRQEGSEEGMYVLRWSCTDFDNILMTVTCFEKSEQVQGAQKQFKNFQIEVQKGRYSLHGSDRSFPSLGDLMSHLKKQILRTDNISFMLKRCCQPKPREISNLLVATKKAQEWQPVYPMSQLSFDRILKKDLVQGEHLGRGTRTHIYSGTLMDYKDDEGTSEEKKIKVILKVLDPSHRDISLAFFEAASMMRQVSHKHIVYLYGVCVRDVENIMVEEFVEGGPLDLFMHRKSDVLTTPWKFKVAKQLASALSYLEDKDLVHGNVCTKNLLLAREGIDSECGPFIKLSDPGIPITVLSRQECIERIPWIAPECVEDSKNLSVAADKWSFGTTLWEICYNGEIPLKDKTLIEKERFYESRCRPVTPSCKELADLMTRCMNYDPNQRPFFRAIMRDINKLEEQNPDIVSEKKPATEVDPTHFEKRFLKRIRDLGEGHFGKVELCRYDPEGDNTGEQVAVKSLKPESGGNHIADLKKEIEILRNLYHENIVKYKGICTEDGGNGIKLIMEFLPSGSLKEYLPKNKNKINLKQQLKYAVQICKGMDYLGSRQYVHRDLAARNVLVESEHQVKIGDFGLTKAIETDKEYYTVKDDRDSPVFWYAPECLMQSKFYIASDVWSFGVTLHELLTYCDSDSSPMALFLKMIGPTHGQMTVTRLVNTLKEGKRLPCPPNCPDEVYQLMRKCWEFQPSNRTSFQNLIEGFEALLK

[43] = biological target: Casein kinase I isoform epsilon (Homo sapiens) (UniProt P49674); test: CK1_epsilon1 Kinase panel; settings: Compound concentration 1.0 uM
[44] = biological target: 5-hydroxytryptamine receptor 1A (Homo sapiens) (UniProt P08908); settings: Compound concentration 10.0 uM
[45] = biological target: Inhibitor of nuclear factor kappa-B kinase subunit alpha (Homo sapiens) (UniProt O15111); test: IKK_alpha Kinase panel; settings: Compound concentration 1.0 uM
[46] = biological target: Tyrosine-protein kinase Blk (Homo sapiens) (UniProt P51451); test: Blk Kinase panel; settings: Compound concentration 1.0 uM
[47] = biological target: Mu-type opioid receptor (Homo sapiens) (UniProt P35372); settings: Compound concentration 10.0 uM
[48] = biological target: Kappa-type opioid receptor (Homo sapiens) (UniProt P41145); settings: Compound concentration 10.0 uM
[49] = biological target: Tyrosine-protein kinase receptor TYRO3 (Homo sapiens) (UniProt Q06418); test: Rse Kinase panel; settings: Compound concentration 1.0 uM
[50] = biological target: Tyrosine-protein kinase Tec (Homo sapiens) (UniProt P42680); test: TEC Kinase panel; settings: Compound concentration 1.0 uM
[51] = biological target: Dual specificity mitogen-activated protein kinase kinase 3 (Homo sapiens) (UniProt P46734); test: MEK3 Kinase panel; settings: Compound concentration 1.0 uM
Dual specificity mitogen-activated protein kinase kinase 3 (Homo sapiens), sequence (P46734 whole entry, the tested form may be a part): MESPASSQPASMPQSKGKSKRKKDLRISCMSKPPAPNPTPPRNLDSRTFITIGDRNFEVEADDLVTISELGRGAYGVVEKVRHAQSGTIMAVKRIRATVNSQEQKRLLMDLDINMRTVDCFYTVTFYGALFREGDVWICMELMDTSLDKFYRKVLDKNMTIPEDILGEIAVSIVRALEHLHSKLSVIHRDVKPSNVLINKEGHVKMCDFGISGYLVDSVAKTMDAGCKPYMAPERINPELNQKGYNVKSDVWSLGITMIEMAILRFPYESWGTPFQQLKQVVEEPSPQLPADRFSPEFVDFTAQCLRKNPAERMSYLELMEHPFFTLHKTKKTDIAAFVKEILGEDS

[52] = biological target: PAS domain-containing serine/threonine-protein kinase (Homo sapiens) (UniProt Q96RG2); test: PASK Kinase panel; settings: Compound concentration 1.0 uM
PAS domain-containing serine/threonine-protein kinase (Homo sapiens), sequence (Q96RG2 whole entry, the tested form may be a part): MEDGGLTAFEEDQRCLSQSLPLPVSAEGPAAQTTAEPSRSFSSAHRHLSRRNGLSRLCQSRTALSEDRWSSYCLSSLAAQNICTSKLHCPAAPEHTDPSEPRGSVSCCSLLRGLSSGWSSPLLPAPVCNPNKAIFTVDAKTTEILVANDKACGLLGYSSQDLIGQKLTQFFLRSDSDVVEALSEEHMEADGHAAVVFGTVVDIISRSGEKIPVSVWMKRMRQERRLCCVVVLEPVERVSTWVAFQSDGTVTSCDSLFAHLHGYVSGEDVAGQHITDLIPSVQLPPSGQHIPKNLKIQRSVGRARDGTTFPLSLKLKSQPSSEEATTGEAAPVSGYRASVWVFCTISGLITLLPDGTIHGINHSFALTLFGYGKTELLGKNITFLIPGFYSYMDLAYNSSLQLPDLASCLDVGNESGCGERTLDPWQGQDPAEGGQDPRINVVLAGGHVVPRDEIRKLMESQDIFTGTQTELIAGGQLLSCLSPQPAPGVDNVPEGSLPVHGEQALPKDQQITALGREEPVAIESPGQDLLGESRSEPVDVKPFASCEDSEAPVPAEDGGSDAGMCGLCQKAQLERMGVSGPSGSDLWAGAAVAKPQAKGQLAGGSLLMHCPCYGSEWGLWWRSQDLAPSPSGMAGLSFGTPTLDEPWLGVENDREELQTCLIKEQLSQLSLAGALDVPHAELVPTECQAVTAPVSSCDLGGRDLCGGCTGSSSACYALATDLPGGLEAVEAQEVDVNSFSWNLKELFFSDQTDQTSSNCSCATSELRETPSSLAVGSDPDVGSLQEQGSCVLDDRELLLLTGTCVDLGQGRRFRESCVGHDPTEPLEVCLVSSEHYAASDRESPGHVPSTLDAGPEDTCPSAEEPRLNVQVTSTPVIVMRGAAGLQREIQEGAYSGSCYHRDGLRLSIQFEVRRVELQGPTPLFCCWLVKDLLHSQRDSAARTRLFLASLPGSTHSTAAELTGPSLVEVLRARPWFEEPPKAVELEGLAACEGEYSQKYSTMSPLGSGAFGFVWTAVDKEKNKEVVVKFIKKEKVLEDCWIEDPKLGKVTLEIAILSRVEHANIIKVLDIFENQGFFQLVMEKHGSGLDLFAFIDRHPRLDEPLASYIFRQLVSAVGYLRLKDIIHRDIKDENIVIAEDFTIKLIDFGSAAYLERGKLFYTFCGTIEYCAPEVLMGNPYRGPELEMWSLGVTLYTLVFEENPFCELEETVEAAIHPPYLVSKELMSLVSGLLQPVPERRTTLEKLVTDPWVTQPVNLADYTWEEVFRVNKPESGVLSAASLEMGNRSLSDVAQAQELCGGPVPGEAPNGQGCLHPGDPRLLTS

[53] = biological target: Serine/threonine-protein kinase 3 (Homo sapiens) (UniProt Q13188); test: MST2 Kinase panel; settings: Compound concentration 1.0 uM

`CC(C)(O)[C@H](F)CN1Cc2cc(NC(=O)c3cnn4cccnc34)c(N3CCOCC3)cc2C1=O` showed an inhibition [1] of -3.5%, an inhibition [2] of -2% and an inhibition [3] of 40.5%. It also gave an inhibition [4] of 10.5%, an inhibition [5] of 19% and an inhibition [6] of 9.11%. For the same molecule, the IC50 [7] was 486 nM, the inhibition ([7]; Compound concentration 1.0 uM) was 80.5% and the inhibition [8] was -0.5%. The inhibition [9] was 1.93%, the inhibition [10] was 7% and the inhibition [11] was 3%. The inhibition [12] was 3.5%, the inhibition [13] was 2.5% and the inhibition [14] was 2.1%. The inhibition [15] was -7.48%, the inhibition [16] was 41.3% and the inhibition [17] was 12%. For the same molecule, the inhibition [18] was 2%, the inhibition [19] was 46.5% and the inhibition [20] was 38.5%. The inhibition [21] was 2%, the inhibition [22] was -2% and the inhibition [23] was 64.3%. It also gave an inhibition [24] of 1%, an inhibition [25] of -8.65% and an inhibition [26] of -2.5%. For the same molecule, the inhibition [27] was 7.8%, the inhibition [28] was 4% and the inhibition [29] was 21%. For the same molecule, the inhibition [30] was 2.5%, the inhibition [31] was -0% and the inhibition [32] was 3.5%. The inhibition [33] was 4%, the inhibition [34] was 4% and the inhibition [35] was 13%. It also gave an inhibition [36] of 23%, an inhibition [37] of -9.33% and an inhibition [38] of 15.5%. The inhibition [39] was -5.5%, the inhibition [40] was 17.7% and the inhibition [41] was 41.5%. The IC50 [42] was 282 nM, the inhibition ([42]; Compound concentration 1.0 uM) was 83.5% and the inhibition [43] was 5.5%. The inhibition [44] was -2.64%, the inhibition [45] was 8.5% and the inhibition [46] was 37.5%. The inhibition [47] was 6.2%, the inhibition [48] was -0.13% and the inhibition [49] was 18%. It also gave an inhibition [50] of 0.5%, an inhibition [51] of 12% and an inhibition [52] of -6.5%. It also gave an inhibition [53] of 7%.

Source: ChEMBL document CHEMBL4879554, “Data for DCP probe GNE-2256” (2021)
